Test results from ChEMBL document CHEMBL1134256, “Anticancer activity of synthetic analogues of the phorboxazoles” (Bioorg Med Chem Lett, 2001).

Legend:
BT-20 [1] = test: Effect on proliferation of human breast cancer cell line BT-20 by MTT assay method; format: functional, cell-based
Candida albicans [2] = test: In vitro growth inhibitory concentration for antifungal activity against Candida albicans; format: functional
NALM-6 [3] = test: Effect on proliferation of human B-lineage acute lymphoblastic leukemia cell line NALM-6 by MTT assay method; format: functional, cell-based
[4] = tested on: Saccharomyces pastorianus; test: In vitro growth inhibitory concentration for antifungal activity against Saccharomyces carlsbergensis; format: functional
U373 MG [5] = test: Effect on proliferation of human brain tumor (glioblastoma) cell line U373 by MTT assay method; format: functional, cell-based, U-373MG ATCC
BT-20 [6] = test: In vitro anticlonogenic effect on human breast cancer cell line BT-20 at 10 nM concentration; format: functional
BT-20 [7] = test: In vitro anticlonogenic effect on human breast cancer cell line BT-20 at 1 nM concentration; format: functional
BT-20 [8] = test: In vitro anticlonogenic effect on human breast cancer cell line BT-20 at 10 nM concentration,; format: functional
BT-20 [9] = test: In vitro anticlonogenic effect on human breast cancer cell line BT-20 at 100 nM concentration; format: functional
NALM-6 [10] = test: In vitro anticlonogenic effect on human B-lineage acute lymphoblastic leukemia cell line NALM-6 at 10 nM concentration; format: functional
NALM-6 [11] = test: In vitro anticlonogenic effect on human B-lineage acute lymphoblastic leukemia cell line NALM-6 at 100 nM concentration; format: functional
NALM-6 [12] = test: In vitro anticlonogenic effect on human B-lineage acute lymphoblastic leukemia cell line NALM-6 at 1 nM concentration; format: functional
U373 MG [13] = test: In vitro anticlonogenic effect on human brain tumor (glioblastoma) cell line U373 at 100 nM concentration; format: functional, U-373MG ATCC
U373 MG [14] = test: In vitro anticlonogenic effect on human brain tumor (glioblastoma) cell line U373 at 10 nM concentration; format: functional, U-373MG ATCC
BT-20 [15] = test: In vitro anticlonogenic effect on human breast cancer cell line BT-20 100 nM concentration; format: functional
BT-20 [16] = test: In vitro anticlonogenic effect on human breast cancer cell line BT-20 10 nM concentration; format: functional
BT-20 [17] = test: In vitro anticlonogenic effect on human breast cancer cell line BT-20 1 nM concentration; format: functional
[18] = tested on: Saccharomyces pastorianus; test: In vitro growth inhibitory concentration against Saccharomyces carlsbergensis; format: functional
U373 MG [19] = test: In vitro anticlonogenic effect on human brain tumor (glioblastoma) cell line U373 10 nM concentration e; format: functional, U-373MG ATCC
Candida albicans [20] = test: In vitro growth inhibitory concentration against Candida albicans; format: functional
U373 MG [21] = test: In vitro anticlonogenic effect on human brain tumor (glioblastoma) cell line U373 100 nM concentration; format: functional, U-373MG ATCC

Structure (SMILES)	IC50 (BT-20 [1]) [nM]	GI50 (Candida albicans [2]) [nM]	IC50 (NALM-6 [3]) [nM]	GI50 [4] [nM]	IC50 (U373 MG [5]) [nM]	Mean no. colonies (NALM-6 [10])	Mean no. colonies (NALM-6 [11])	Mean no. colonies (NALM-6 [12])	other results
COC(=O)/C=C/C[C@H]1O[C@@H](/C(C)=C/c2coc(C[C@]3(O)C[C@H](OC)C[C@H]([C@H](O)/C=C(C)/C=C/[C@@H](C/C=C/Br)OC)O3)n2)[C@H](C)[C@@H](OC(C)=O)[C@H]1C	> 2000	1.6	> 2000	1.6	> 2000	–	–	–	–
C=C1C[C@@H]2C[C@@H]3C[C@@H](O)C[C@@H](O3)c3coc(n3)/C=C/C[C@H]3O[C@@H](/C(C)=C/c4coc(C[C@]5(O)C[C@H](OC)C[C@H](CO)O5)n4)[C@H](C)[C@@H](OC(=O)/C=C\C[C@@H](C1)O2)[C@H]3C	> 2000	1.6	> 2000	1.6	> 2000	–	–	–	–
C=C1C[C@@H]2C[C@@H]3C[C@@H](O)C[C@@H](O3)c3coc(n3)/C=C/C[C@H]3O[C@@H](/C(C)=C/c4coc(C[C@]5(O)C[C@H](OC)C[C@H]([C@H](O)/C=C(C)/C=C/[C@@H](C/C=C/Br)OC)O5)n4)[C@H](C)[C@@H](OC(=O)/C=C\C[C@@H](C1)O2)[C@H]3C	3.4	1.6	1.7	1.6	6.7	0 10e4*cells	0 10e4*cells	270 10e4*cells	Mean no. colonies (BT-20 [6]): 0 10e4*cells; Mean no. colonies (BT-20 [7]): 1070 10e4*cells; inhibition at 0.01 µM (BT-20 [8]): > 99.9%; Mean no. colonies (BT-20 [9]): 0 10e4*cells; inhibition at 0.1 µM (BT-20 [9]): > 99.9%; inhibition at 0.01 µM (NALM-6 [10]): > 99.9%; inhibition at 0.1 µM (NALM-6 [11]): > 99.9%; Mean no. colonies (U373 MG [13]): 0 10e4*cells; inhibition at 0.1 µM (U373 MG [13]): > 99.9%; Mean no. colonies (U373 MG [14]): 378 10e4*cells
C#CC[C@H](/C=C/C(C)=C/[C@@H](O)[C@H]1C[C@@H](OC)C[C@@](O)(Cc2nc(/C=C(\C)[C@@H]3O[C@@H]4C/C=C/c5nc(co5)[C@H]5C[C@H](O)C[C@@H](C[C@H]6CC(=C)C[C@H](C/C=C\C(=O)O[C@@H]([C@H]4C)[C@H]3C)O6)O5)co2)O1)OC	12.6	–	4.8	–	27.4	293 10e4*cells	0 10e4*cells	2116 10e4*cells	Mean no. colonies (BT-20 [15]): 0 10e4*cells; Mean no. colonies (BT-20 [16]): 1062 10e4*cells; Mean no. colonies (BT-20 [17]): 1540 10e4*cells; GI50 [18]: 1.6 nM; Mean no. colonies (U373 MG [19]): 586 10e4*cells; GI50 (Candida albicans [20]): 1.6 nM; Mean no. colonies (U373 MG [21]): 144 10e4*cells
C=C1C[C@@H]2C[C@@H]3C[C@@H](O)C[C@@H](O3)c3coc(n3)/C=C/C[C@H]3O[C@@H](/C(C)=C/[C@H](CO)NC(=O)C[C@]4(O)C[C@H](OC)C[C@H]([C@H](O)/C=C(C)/C=C/[C@@H](C/C=C/Br)OC)O4)[C@H](C)[C@@H](OC(=O)/C=C\C[C@@H](C1)O2)[C@H]3C	> 2000	1.6	> 2000	1.6	> 2000	–	–	–	–
C=C1C[C@@H]2C[C@@H]3C[C@@H](O)C[C@@H](O3)c3coc(n3)/C=C/C[C@H]3O[C@@H](/C(C)=C/c4coc(C[C@]5(OC)C[C@H](OC)C[C@H]([C@H](O)/C=C(C)/C=C/[C@@H](C/C=C/Br)OC)O5)n4)[C@H](C)[C@@H](OC(=O)/C=C\C[C@@H](C1)O2)[C@H]3C	11.3	1.6	5.2	1.6	29.2	422 10e4*cells	0 10e4*cells	1760 10e4*cells	Mean no. colonies (BT-20 [6]): 1430 10e4*cells; Mean no. colonies (BT-20 [7]): 1824 10e4*cells; Mean no. colonies (BT-20 [9]): 0 10e4*cells; Mean no. colonies (U373 MG [13]): 0 10e4*cells; Mean no. colonies (U373 MG [14]): 578 10e4*cells
COC(=O)C[C@]1(O)C[C@H](OC)C[C@H]([C@H](O)/C=C(C)/C=C/[C@@H](C/C=C/Br)OC)O1	> 2000	1.6	> 2000	1.6	> 2000	–	–	–	–
